Values joined by “and” are separate entries in the source; they are usually repeats but may differ in a detail not shown here. Equal values may be shown once.
Columns and labels:
Type in all cases: in vivo
C57BL/6J mice = assay: Mouse locomotor activity (photocell activity cages)
Procedure: Male experimentally naive C57BL/6J mice were placed into individual Omnitech photocell activity cages (28×16.5 cm) 30 min after intraperitoneal (i.p.) administration of either vehicle (n=6) or tezampanel at 10 mg/kg (n=7). Interruptions of the photocell beams (two banks of eight cells each) were then recorded for the next 30 min. Data were expressed as number of photocell interruptions.
(§1) Statistical analyses. All statistical analyses were performed using Prism 7 (GraphPad Software, La Jolla, CA, USA). Data were analyzed with analysis of variance (ANOVA) followed by the Tukey test for multiple comparisons when appropriate. To determine whether treatment with tezampanel affected oxycodone withdrawal, results with its dosage groups (i.e., chronic oxycodone+tezampanel) were compared to the chronic oxycodone+vehicle treatment group. To determine if tezampanel exerted effects by itself in non-dependent mice, results with the chronic saline+10 mg/kg tezampanel group were compared to the chronic saline+vehicle group. Student's T tests were used for analyzing locomotor activity results. Statistical significance was inferred for all tests when p<0.05.

Long-Evans hooded rats = assay: Oxycodone prime-induced reinstatement of extinguished oxycodone-reinforced lever pressing in rats; details: for mean (S.E.M.) active lever presses during reinstatement test session: 0.1 mg/kg s.c. oxycodone prime, vehicle 35.42
Procedure: Tezampanel was tested for its ability to reduce prime-induced reinstatement of extinguished, oxycodone-reinforced lever pressing in rats. Tezampanel doses of 0 (vehicle), 3, and 10 mg/kg were solubilized in a sterile water vehicle and administered i.p. 30 min prior to testing.
Adult male Long-Evans hooded rats (Envigo, Indianapolis, IN) weighing 275-300 g upon delivery were used. When not in testing, rats were individually housed in standard plastic rodent cages in a temperature-controlled (22° C.), AAALAC-accredited facility in which they had ad libitum access to water. The rats were allowed ad libitum rat chow for at least one week prior to the commencement of training, after which they were maintained at 320 g by controlled feedings. The rats were maintained on a 12-h/12-h reversed light-dark cycle (0600-1800 lights off) for the duration of the experiment, and they were trained and tested during the dark segment of this cycle.
Oxycodone self-administration training sessions were conducted five days per week (M-F) for 3 h daily. […] For the duration of the infusion, the tone sounded, and the stimulus lights above both levers flashed at 3 Hz.
Self-administration training continued until these criteria had been met: 1) at least 12 self-administration sessions had occurred; 2) at least 15 oxycodone infusions had occurred during each of the last four sessions; 3) at least 125 lifetime oxycodone infusions had been obtained; 4) at least 50 active lever responses on the last three days of self-administration had been emitted; and 5) there were no increasing or decreasing trends in active lever responses during the last three sessions of self-administration, after which extinction training began. Subsequently, twelve 3-h daily (Mon-Sun) extinction sessions were conducted. During extinction sessions, the house light was illuminated, and the levers were extended, but infusions were not administered nor did any other scheduled stimulus change occur (i.e., neither Sonalert® activations nor stimulus light illuminations occurred). Rats were considered eligible for reinstatement testing provided that the mean number of active-lever presses during the last 3 sessions of extinction was lower than the mean number of active-lever presses during the first 3 sessions of extinction.
A six-day incubation period during which rats remained in their home cages followed extinction training. Oxycodone prime reinstatement testing immediately followed this incubation period (i.e., on the seventh day following the 12th day of extinction training). Conditions during prime reinstatement testing were identical to those during extinction except that either 3 or 10 mg/kg Tezampanel or its vehicle was administered 30 min prior to the reinstatement test session. […]

[1] = test system: oxycodone withdrawal in mice; assay: Oxycodone-precipitated (naloxone) withdrawal in mice; details: mice chronically administered oxycodone
Procedure: as §1
FIGS. 3A-3D show total withdrawal signs, paw tremors, jumps, and percent body weight loss, respectively. ANOVA results indicated statistically significant total number of signs [F(5,42)=33.78; p<0.0001] (FIG. 3A), paw tremors [F(5,42)=10.85; p<0.0001] (FIG. 3B), jumps [F (5, 42)=22.77; p<0.0001] (FIG. 3C) and loss of body weight [F (5, 42)=4.694; p=0.0017] (FIG. 3D).

[2] = 10 mg/kg intraperitoneal, naloxone on test day, vs oxycodone+vehicle

No. of Interruptions (±S.E.M.) (C57BL/6J mice; 10 mg/kg intraperitoneal, 30 min before, photocell interruptions over 30 min, n=7): 663.7 ± 87.0
locomotor activity compared to vehicle-treated group (C57BL/6J mice; 10 mg/kg intraperitoneal, naive mice, p<0.0001): significantly reduced
Compound: O=C(O)[C@@H]1C[C@H]2C[C@@H](CCc3nn[nH]n3)CC[C@H]2CN1 [Tezampanel, (3S,4aR,6R,8aR)-6-[2-(1H-tetrazol-5-yl)ethyl]decahydroisoquinoline-3-carboxylic acid]
observational comments on behaviour (C57BL/6J mice; 10 mg/kg dose, mice): slowed, unsteady locomotion and low activity rates
mean (S.E.M.) active lever presses during reinstatement test session (Long-Evans hooded rats; 3 mg/kg i.p. 30 min prior): 15.55 (+3.022) and 15.55 (±3.022)
mean (S.E.M.) active lever presses during reinstatement test session (Long-Evans hooded rats; 10 mg/kg i.p. 30 min prior): 13.00 (+2.537) and 13.00 (±2.537)
reinstated response levels relative to vehicle-control (Long-Evans hooded rats; 3 and 10 mg/kg i.p.): significantly decreased
reinstatement relative to last extinction session (Long-Evans hooded rats; 3 and 10 mg/kg i.p.): prevented oxycodone prime injections from eliciting effective reinstatement
jumps [1, 2]: attenuated
paw tremors [1, 2]: attenuated
total number of withdrawal signs [1, 2]: attenuated
withdrawal-induced body weight loss ([1]; at the doses tested): failed to attenuate

Source: patent US20240277697A1, “METHODS OF TREATING OR PREVENTING CONDITIONS ASSOCIATED WITH OPIATE WITHDRAWAL OR OPIATE RELAPSE” (Proniras Corporation, priority 2021, published 2024)
